How the values were obtained:
MRC-5 = experiment: Cell proliferation assay (MTT/MTS); details: Homo sapiens, MRC5, read-out: IC50 ± SEM
Procedure: (§1) All cell lines were authenticated by short tandem repeat analysis and maintained following the ATCC instructions. […] Anti-proliferation activity was analyzed using the 3-(4,5-dimethylthiazole-2-yl)-2,5-diphenyl-2H-tetrazolium bromide (MTT) or (3-(4,5-dimethylthiazol-2-yl)-5-(3-carboxymethoxyphenyl)-2 -(4-sulfophenyl)-2H-tetrazolium) (MTS) assay.
(§2) A375, HT-29 and Calu-6 cell lines were purchased from the typical culture preservation commission cell bank of the Chinese Academy of Sciences in China. […] H358 cell line was obtained from EK-bioscience. Cells were seeded into 96-well plates at an appropriate density, and 24 h later, diluted drug in different concentrations was added to each test well in triplicate. The cell viability was tested 5 days (H358 was analyzed for 7 days) after the cells were plated according to the procedure originally described by Mosmann [1]. Survival rate was calculated using the formula: Survival rate = (Mean absorbance of experimental wells-Mean absorbance of DMSO wells) / (Mean absorbance of control wells-Mean absorbance of DMSO wells) × 100%. IC50 was determined from the regression of a plot of the logarithm of the concentration versus survival rate by GraphPad Prism 6 using the non-linear regression Dose–Response Inhibition (four parameters) Model.

A375 cells = experiment: Apoptosis assay by flow cytometry; details: 48 h
Procedure: (§3) Cell lines were inoculated at the density of 2×10^4 cells per well in a 6-well plate and cultured overnight. […] The cell cycle or apoptosis analysis was performed by flow cytometry.
(§4) Tumor cell lines were inoculated in 6-well plates at a density of 2×10^4 cells/well. […] Both apoptosis and cell cycle were measured by flow cytometry (Accuri C6, BD biosciences).

Colo-829 = experiment: Cell proliferation assay (MTT/MTS); details: Homo sapiens, COLO-829, read-out: IC50 ± SEM
Procedure: as §1
(§5) Cells were seeded into 96-well plates at an appropriate density, and 24 h later, diluted drug in different concentrations was added to each test well in triplicate. The cell viability was tested 5 days (H358 was analyzed for 7 days) after the cells were plated according to the procedure originally described by Mosmann [1]. Survival rate was calculated using the formula: Survival rate = (Mean absorbance of experimental wells-Mean absorbance of DMSO wells) / (Mean absorbance of control wells-Mean absorbance of DMSO wells) × 100%. IC50 was determined from the regression of a plot of the logarithm of the concentration versus survival rate by GraphPad Prism 6 using the non-linear regression Dose–Response Inhibition (four parameters) Model.

A549 = experiment: Cell proliferation assay (MTT/MTS); details: Homo sapiens, A549, read-out: IC50 ± SEM
Procedure: as §1, §5

A375 = experiment: Cell proliferation assay (MTT/MTS); details: Homo sapiens, A-375, read-out: IC50 ± SEM
Procedure: as §1, §2

COLO 205 = experiment: Cell proliferation assay (MTT/MTS); details: Homo sapiens, COLO 205, read-out: IC50 ± SEM
Procedure: as §1, §2

COLO 205 cells = experiment: Apoptosis assay by flow cytometry; details: 48 h, control 21.9%
Procedure: as §3, §4

H1975 = experiment: Cell proliferation assay (MTT/MTS); details: Homo sapiens, NCI-H1975, read-out: IC50 ± SEM
Procedure: as §1, §2

HL-60 = experiment: Cell proliferation assay (MTT/MTS); details: Homo sapiens, HL-60, read-out: IC50 ± SEM
Procedure: as §1, §2

Calu-6 = experiment: Cell proliferation assay (MTT/MTS); details: Homo sapiens, Calu-6, read-out: IC50 ± SEM
Procedure: as §1, §5

HT-29 = experiment: Cell proliferation assay (MTT/MTS); details: Homo sapiens, HT-29, read-out: IC50 ± SEM
Procedure: as §1, §5

MEK1/MAP2K1(h) = MEK1/MAP2K1(h) (Homo sapiens, UniProt Q02750); experiment: MEK1 inhibition, comparison of tunlametinib and MEK162 (Caliper EZ Reader)
MEK1/MAP2K1(h), sequence (Q02750 whole entry): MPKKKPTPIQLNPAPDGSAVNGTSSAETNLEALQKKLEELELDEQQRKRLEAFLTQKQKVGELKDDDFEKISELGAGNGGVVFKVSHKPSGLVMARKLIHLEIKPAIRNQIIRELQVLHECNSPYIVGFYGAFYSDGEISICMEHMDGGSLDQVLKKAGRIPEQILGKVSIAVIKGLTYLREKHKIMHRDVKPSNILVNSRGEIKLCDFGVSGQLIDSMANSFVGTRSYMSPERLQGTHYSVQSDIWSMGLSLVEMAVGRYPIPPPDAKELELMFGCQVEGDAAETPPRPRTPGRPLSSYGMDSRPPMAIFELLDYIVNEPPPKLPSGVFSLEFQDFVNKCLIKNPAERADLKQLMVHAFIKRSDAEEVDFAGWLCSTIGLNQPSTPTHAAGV
Procedure: Kinase inhibition activity against MEK1 was conducted in Cerep (France) and Sundia (Shanghai, China).
The signals were measured using Caliper EZ Reader and the data were analyzed.

[1] = design: method as in Infante et al., 2012; details: requires DMSO as co-solvate; ref Infante et al., 2012; cited from earlier work
[2] = cited from earlier work
hERG channel = test system: hERG channel; design: method as in Food and Drug Administration, 2015; details: ref Food and Drug Administration, 2015; cited from earlier work
MEK1 kinase = target: MEK1 kinase; design: method as in Iverson et al., 2009; details: ref Iverson et al., 2009; cited from earlier work
MEK2 kinase = target: MEK2 kinase; design: method as in Iverson et al., 2009; details: ref Iverson et al., 2009; cited from earlier work

Row | IC50 (Colo-829) [nM] | IC50 (A549) [nM] | IC50 (A375) [nM] | IC50 (COLO 205) [nM] | IC50 (H1975) [µM] | IC50 (HL-60) [nM] | IC50 (Calu-6) [nM] | IC50 (HT-29) [nM] | Compound | IC50 (MRC-5) [µM] | apoptosis-inducing effect (A375 cells) | also measured
1 | 301 ± 88.8 | 5730 ± 1030 | 67.52 ± 0.07 | 54.3 ± 2.21 | > 50 | 35.3 ± 20.9 | 2310 ± 204 | 175 ± 19.3 | Cn1cnc2c(F)c(Nc3ccc(Br)cc3Cl)c(C(=O)NOCCO)cc21 [AZD6244, selumetinib] | > 50 | no significant apoptosis-inducing effect | apoptosis rate (COLO 205 cells; 1 μM): 40.6%
2 |  |  |  |  |  |  |  |  | Cn1cnc2c(F)c(Nc3ccc(Br)cc3F)c(C(=O)NOCCO)cc21 [MEK162, binimetinib] |  |  | IC50 (MEK1/MAP2K1(h)): 224 ± 16.9 nM
3 | 1.78 | 45.4 ± 4.76 | 0.74 ± 0.01 | 0.74 ± 0.02 | > 1 | 0.6 ± 0.28 | 10.56 ± 0.07 | 1.45 ± 0.2 | CC(=O)Nc1cccc(-n2c(=O)n(C3CC3)c(=O)c3c(Nc4ccc(I)cc4F)n(C)c(=O)c(C)c32)c1 [GSK212, trametinib] | > 1 | no significant apoptosis-inducing effect | apoptosis rate (COLO 205 cells; 20 nM): 47.0%; solubility property [1]: poor solubility; drug accumulation ([2]; ref Infante et al., 2012): ~6 fold; mean accumulation ratio (day15/day1) ([2]; repeat dose of 2 mg, ref Food and Drug Administration, 2013): ~6.0
4 |  |  |  |  |  |  |  |  | O=C(c1ccc(F)c(F)c1Nc1ccc(I)cc1F)N1CC(O)([C@@H]2CCCCN2)C1 [Cobimetinib, cobimetinib] |  |  | IC50 (hERG channel): 500 nM
5 |  |  |  |  |  |  |  |  | COc1cc(F)c(F)c(Nc2ccc(I)cc2F)c1NS(=O)(=O)C1(C[C@H](O)CO)CC1 [REDA119] |  |  | IC50 (MEK1 kinase): 19 nM; IC50 (MEK2 kinase): 47 nM

From paper PMC10557067, “Preclinical characterization of tunlametinib, a novel, potent, and selective MEK inhibitor” (Frontiers in Pharmacology, 2023)
